From the NIST ThermoML archive (doi:10.1016/j.fluid.2013.11.031)

Details: Liquid, Vibrating tube method

CCCO [propan-1-ol]
mass density [kg/m3]
Details | 293.15 K | 313.15 K | 333.15 K | 353.15 K
100 kPa | 803.8 | 787.1 | 769.9 | 752
10000 kPa | 811.3 | 795.5 | 780 | 762.5
20000 kPa | 818.1 | 803 | 788.3 | 771.8
30000 kPa | 824.4 | 810 | 795.7 | 780.2
40000 kPa | 830 | 816.4 | 802.5 | 787.9
50000 kPa | 835.6 | 822.3 | 809 | 795
60000 kPa | 841 | 827.9 | 815 | 801.4
70000 kPa | 845.9 | 833.2 | 820.6 | 807.7
80000 kPa | 850.7 | 838.3 | 826.2 | 813.4
90000 kPa | 855.2 | 843 | 831.2 | 818.7
100000 kPa | 859.6 | 847.9 | 836.3 | 823.8
110000 kPa | 863.7 | 852.3 | 840.9 | 828.8
120000 kPa | 867.8 | 856.6 | 845.3 | 833.5
130000 kPa | 871.6 | 860.7 | 849.6 | 837.9
140000 kPa | 875.3 | 864.6 | 853.6 | 842.1
